Biological target: T1, human PAH with the R408W mutation (A375 R408W cells) (Homo sapiens, UniProt P00439, R408W)
T1 construct: expressed in transfected cells
T1 sequence (P00439 1-452 R408W): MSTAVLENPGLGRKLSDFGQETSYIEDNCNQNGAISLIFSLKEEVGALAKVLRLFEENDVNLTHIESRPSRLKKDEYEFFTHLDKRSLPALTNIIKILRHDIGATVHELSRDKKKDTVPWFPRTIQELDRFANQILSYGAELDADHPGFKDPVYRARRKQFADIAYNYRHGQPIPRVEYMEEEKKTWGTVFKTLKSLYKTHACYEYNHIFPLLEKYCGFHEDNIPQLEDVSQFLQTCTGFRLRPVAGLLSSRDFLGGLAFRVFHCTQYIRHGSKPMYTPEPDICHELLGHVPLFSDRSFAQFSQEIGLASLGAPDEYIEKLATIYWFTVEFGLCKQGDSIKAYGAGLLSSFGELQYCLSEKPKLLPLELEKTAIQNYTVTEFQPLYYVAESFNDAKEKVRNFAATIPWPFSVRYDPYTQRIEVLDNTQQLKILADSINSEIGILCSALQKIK
Assay: Cell Based Phenylalanine Flux Assay
Settings: A375 cells expressing R408W PAH; 24 hrs with compound, then 20 μM sepiapterin and 800 μM 13C9,15N-Phenylalanine for 4 hours; 13C-Tyrosine by LC-MS; average where tested multiple times
Procedure: Cells expressing R408W PAH were made by transducing A375 cells with lentivirus encoding human PAH with the R408W mutation in pLVX-Puro, then selecting with puromycin until stable cell lines were generated. A375 R408W cells were seeded into 96 well plates in DMEM+10% FBS at a density of 40,000 cells/well one hour prior to compound addition. Compounds were resuspended in DMSO, and 2-fold serial dilutions were performed to generate a 10-point dose curve. Compounds were added to plated cells in a total volume of 100 μl, and a final DMSO concentration of 0.5%. Each compound was tested in duplicate. Following compound addition, cells were placed in a 5% CO2, 37° C. tissue culture incubator for 24 hrs. After the incubation period, 20 μM sepiapterin and 800 μM 13C9,15N-Phenylalanine were added. After 4 hours, cell media was removed. An aliquot of 10 μl of cell media was combined with 200 μl of extraction buffer (80% acetonitrile/20% H2O) for each well. Determination of ^13C-Tyrosine concentration was assessed by liquid chromatography mass spectrometry.
Specific compounds disclosed herein were tested in the foregoing assay and they were determined to have an AC50 according to the following scores: (A) less than or equal to 0.500 μM, (B) greater than 0.500 and less than […], (C) greater than or equal to 1.000 and less than 5.000 μM, (D) greater than or equal to 5.000 μM, (E) no fit, and (NT) not tested, as shown below. Where a compound was tested multiple times, the average value of the tests is reported.

SMILES | AC50
O=C(c1nnc(-c2cnn(S(=O)(=O)C3CC3)c2)o1)N1CCc2[nH]cnc2C1c1nc2cc(F)ccc2o1 (stereo not drawn) [listing 1 of 2 here] | ≥ 5 µM
O=C(c1cnn2cc(CN3CCC(F)(F)C3)ccc12)N1CCc2[nH]cnc2C1c1nc2cc(F)ccc2o1 (stereo not drawn) | ≥ 5 µM
Nc1ccc2c(C(=O)N3CCc4[nH]cnc4C3c3nc4cc(F)ccc4o3)cnn2c1 (stereo not drawn) [listing 1 of 2 here] | ≥ 5 µM
O=C(C1CN(c2ccccn2)C1)N1CCc2[nH]cnc2C1c1nc2cc(F)ccc2o1 (stereo not drawn) [listing 1 of 2 here] | ≥ 5 µM
O=C(c1cnn2cc(CCN3CC(F)C3)ccc12)N1CCc2[nH]cnc2C1c1nc2cc(F)ccc2o1 (stereo not drawn) [listing 1 of 2 here] | ≥ 5 µM
O=C(c1cnn2cc(CCN3CCOCC3)ccc12)N1CCc2[nH]cnc2C1c1nc2cc(F)ccc2o1 (stereo not drawn) [listing 1 of 2 here] | ≥ 5 µM
COCCOc1ccc2c(C(=O)N3CCc4[nH]cnc4C3c3nc4cc(F)ccc4o3)cnn2c1 (stereo not drawn) [listing 1 of 2 here] | ≥ 5 µM
COCCCc1ccc2c(C(=O)N3CCc4[nH]cnc4C3c3nc4cc(F)ccc4o3)cnn2c1 (stereo not drawn) [listing 1 of 2 here] | ≥ 5 µM
CN(C)CCCOc1ccc2c(C(=O)N3CCc4[nH]cnc4C3c3nc4cc(F)ccc4o3)cnn2c1 (stereo not drawn) [listing 1 of 2 here] | ≥ 5 µM
COC(=O)Nc1ccc2c(C(=O)N3CCc4[nH]cnc4C3c3nc4cc(F)ccc4o3)cnn2c1 (stereo not drawn) [listing 1 of 2 here] | ≥ 5 µM
O=C1CCCN1CCOc1ccc2c(C(=O)N3CCc4[nH]cnc4C3c3nc4cc(F)ccc4o3)cnn2c1 (stereo not drawn) | ≥ 5 µM
O=C(c1nnc(-c2cnn(CC(F)F)c2)o1)N1CCc2[nH]cnc2C1c1nc2cc(F)ccc2o1 (stereo not drawn) | 1 to 5 µM
O=C(c1nnc(-c2cnn(S(=O)(=O)C3CC3)c2)o1)N1CCc2[nH]cnc2C1c1nc2cc(F)ccc2o1 (stereo not drawn) [listing 2 of 2 here] | 1 to 5 µM
O=C(c1nnc(-c2cnn(C(F)F)c2)o1)N1CCc2[nH]cnc2C1c1nc2cc(F)ccc2o1 (stereo not drawn) | 1 to 5 µM
O=C(c1nnc(C2CC(F)(F)C2)o1)N1CCc2[nH]cnc2C1c1nc2cc(F)ccc2o1 (stereo not drawn) | 1 to 5 µM
O=C(c1cnn2cc(Cl)ccc12)N1CCc2[nH]cnc2C1c1nc2cc(F)ccc2o1 (stereo not drawn) | 1 to 5 µM

SMILES | AC50
O=C(N1CCc2[nH]cnc2C1c1nc2cc(F)ccc2o1)C(F)(F)C1(O)CCC1 (stereo not drawn) | 1 to 5 µM
Nc1ccc2c(C(=O)N3CCc4[nH]cnc4C3c3nc4cc(F)ccc4o3)cnn2c1 (stereo not drawn) [listing 2 of 2 here] | 1 to 5 µM
O=C1CN(Cc2ccc3c(C(=O)N4CCc5[nH]cnc5C4c4nc5cc(F)ccc5o4)cnn3c2)CCN1 (stereo not drawn) | ≥ 5 µM
O=C(C1CN(CC(F)(F)F)C1)N1CCc2[nH]cnc2C1c1nc2cc(F)ccc2o1 (stereo not drawn) | 1 to 5 µM
O=C(C1CN(c2ccccn2)C1)N1CCc2[nH]cnc2C1c1nc2cc(F)ccc2o1 (stereo not drawn) [listing 2 of 2 here] | 1 to 5 µM
O=C(c1nnc(-c2cnn(CC(F)(F)F)c2)o1)N1CCc2[nH]cnc2C1c1nc2cc(F)ccc2o1 (stereo not drawn) | 1 to 5 µM
O=C(c1cnn2cc(CCN3CC(F)C3)ccc12)N1CCc2[nH]cnc2C1c1nc2cc(F)ccc2o1 (stereo not drawn) [listing 2 of 2 here] | 1 to 5 µM
O=C(c1cnn2cc(CCN3CCOCC3)ccc12)N1CCc2[nH]cnc2C1c1nc2cc(F)ccc2o1 (stereo not drawn) [listing 2 of 2 here] | 1 to 5 µM
COCCOc1ccc2c(C(=O)N3CCc4[nH]cnc4C3c3nc4cc(F)ccc4o3)cnn2c1 (stereo not drawn) [listing 2 of 2 here] | 1 to 5 µM
COCCc1ccc2c(C(=O)N3CCc4[nH]cnc4C3c3nc4cc(F)ccc4o3)cnn2c1 (stereo not drawn) | 1 to 5 µM
COCCCc1ccc2c(C(=O)N3CCc4[nH]cnc4C3c3nc4cc(F)ccc4o3)cnn2c1 (stereo not drawn) [listing 2 of 2 here] | 1 to 5 µM
O=C(c1cnn2cc(CN3CC(F)C3)ccc12)N1CCc2[nH]cnc2C1c1nc2cc(F)ccc2o1 (stereo not drawn) | 1 to 5 µM
CNCCc1ccc2c(C(=O)N3CCc4[nH]cnc4C3c3nc4cc(F)ccc4o3)cnn2c1 (stereo not drawn) | ≥ 5 µM
CN(C)CCCOc1ccc2c(C(=O)N3CCc4[nH]cnc4C3c3nc4cc(F)ccc4o3)cnn2c1 (stereo not drawn) [listing 2 of 2 here] | 1 to 5 µM
COC(=O)N1CC(C(=O)N2CCc3[nH]cnc3C2c2nc3cc(F)ccc3o2)C1 (stereo not drawn) | 1 to 5 µM
COC(=O)Nc1ccc2c(C(=O)N3CCc4[nH]cnc4C3c3nc4cc(F)ccc4o3)cnn2c1 (stereo not drawn) [listing 2 of 2 here] | 1 to 5 µM

Continued, values first:

AC50 | SMILES
≥ 5 µM | Cn1ncc(C(=O)N2CCc3[nH]cnc3C2c2nc3cc(F)ccc3o2)c1C(F)F (stereo not drawn) [listing 1 of 2 here]
≥ 5 µM | O=C(c1cn[nH]c1C(F)F)N1CCc2[nH]cnc2C1c1nc2cc(F)ccc2o1 (stereo not drawn) [listing 1 of 2 here]
≥ 5 µM | CNc1ccc2c(C(=O)N3CCc4[nH]cnc4C3c3nc4cc(F)ccc4o3)cnn2c1 (stereo not drawn) [listing 1 of 2 here]
≥ 5 µM | Cc1ccc2nc(C3c4nc[nH]c4CCN3C(=O)c3ocnc3C#N)oc2c1 (stereo not drawn) [listing 1 of 2 here]
≥ 5 µM | O=C(c1cncs1)N1CCc2[nH]cnc2C1c1nc2cc(F)ccc2o1 (stereo not drawn) [listing 1 of 2 here]
≥ 5 µM | Cc1nc(N2CCC(F)CC2)oc1C(=O)N1CCc2[nH]cnc2C1c1nc2cc(F)ccc2o1 (stereo not drawn) [listing 1 of 2 here]
≥ 5 µM | COCc1ncc(C(=O)N2CCc3[nH]cnc3C2c2nc3cc(F)ccc3o2)o1 (stereo not drawn) [listing 1 of 2 here]
≥ 5 µM | CN1CCN(c2nnc(C(=O)N3CCc4[nH]cnc4C3c3nc4cc(F)ccc4o3)o2)CC1 (stereo not drawn) [listing 1 of 2 here]
≥ 5 µM | COCc1nnc(C(=O)N2CCc3[nH]cnc3C2c2nc3cc(F)ccc3o2)o1 (stereo not drawn) [listing 1 of 2 here]
≥ 5 µM | Cc1ccc2nc(C3c4nc[nH]c4CCN3C(=O)c3cncs3)oc2c1 (stereo not drawn) [listing 1 of 2 here]
≥ 5 µM | CN(C)Cc1ncc(C(=O)N2CCc3[nH]cnc3C2c2nc3cc(F)ccc3o2)o1 (stereo not drawn)
≥ 5 µM | Cc1nc(CN(C)C)oc1C(=O)N1CCc2[nH]cnc2C1c1nc2cc(F)ccc2o1 (stereo not drawn) [listing 1 of 2 here]
≥ 5 µM | Cc1ccc2nc(C3c4nc[nH]c4CCN3C(=O)c3cnn4cc(CCN(C)C)ccc34)oc2c1 (stereo not drawn) [listing 1 of 2 here]
1 to 5 µM | Cn1nc(C(F)F)cc1C(=O)N1CCc2[nH]cnc2C1c1nc2cc(F)ccc2o1 (stereo not drawn)
1 to 5 µM | Cn1cc(C(=O)N2CCc3[nH]cnc3C2c2nc3cc(F)ccc3o2)c(Cl)n1 (stereo not drawn)
1 to 5 µM | Cc1ccc2nc(C3c4nc[nH]c4CCN3C(=O)c3nnc(-c4ccc(F)cn4)o3)oc2c1 (stereo not drawn)
1 to 5 µM | Cn1ncc(C(=O)N2CCc3[nH]cnc3C2c2nc3cc(F)ccc3o2)c1C(F)F (stereo not drawn) [listing 2 of 2 here]
1 to 5 µM | O=C(c1cn[nH]c1C(F)F)N1CCc2[nH]cnc2C1c1nc2cc(F)ccc2o1 (stereo not drawn) [listing 2 of 2 here]
1 to 5 µM | CNc1ccc2c(C(=O)N3CCc4[nH]cnc4C3c3nc4cc(F)ccc4o3)cnn2c1 (stereo not drawn) [listing 2 of 2 here]
1 to 5 µM | CN(C)c1nnc(C(=O)N2CCc3[nH]cnc3C2c2nc3cc(F)ccc3o2)o1 (stereo not drawn)
≥ 5 µM | COCCNc1nnc(C(=O)N2CCc3[nH]cnc3C2c2nc3cc(F)ccc3o2)o1 (stereo not drawn)
≥ 5 µM | N#Cc1ncoc1C(=O)N1CCc2[nH]cnc2C1c1nc2cc(F)ccc2o1 (stereo not drawn)
≥ 5 µM | N#Cc1nc(N2CCC(F)CC2)oc1C(=O)N1CCc2[nH]cnc2C1c1nc2cc(F)ccc2o1 (stereo not drawn)

AC50 | SMILES
1 to 5 µM | Cc1ccc2nc(C3c4nc[nH]c4CCN3C(=O)c3ocnc3C#N)oc2c1 (stereo not drawn) [listing 2 of 2 here]
1 to 5 µM | O=C(c1ccnn1-c1ccccn1)N1CCc2[nH]cnc2C1c1nc2cc(F)ccc2o1 (stereo not drawn)
1 to 5 µM | Cn1ncnc1C(=O)N1CCc2[nH]cnc2C1c1nc2cc(F)ccc2o1 (stereo not drawn)
1 to 5 µM | Cn1nccc1C(=O)N1CCc2[nH]cnc2C1c1nc2cc(F)ccc2o1 (stereo not drawn)
1 to 5 µM | O=C(c1cncs1)N1CCc2[nH]cnc2C1c1nc2cc(F)ccc2o1 (stereo not drawn) [listing 2 of 2 here]
1 to 5 µM | Cc1nc(N2CCC(F)CC2)oc1C(=O)N1CCc2[nH]cnc2C1c1nc2cc(F)ccc2o1 (stereo not drawn) [listing 2 of 2 here]
1 to 5 µM | COCc1ncc(C(=O)N2CCc3[nH]cnc3C2c2nc3cc(F)ccc3o2)s1 (stereo not drawn)
1 to 5 µM | COCc1ncc(C(=O)N2CCc3[nH]cnc3C2c2nc3cc(F)ccc3o2)o1 (stereo not drawn) [listing 2 of 2 here]
1 to 5 µM | CC(C)(F)c1nnc(C(=O)N2CCc3[nH]cnc3C2c2nc3cc(F)ccc3o2)o1 (stereo not drawn)
1 to 5 µM | O=C(c1nnc(-c2ncccc2F)o1)N1CCc2[nH]cnc2C1c1nc2cc(F)ccc2o1 (stereo not drawn)
1 to 5 µM | CN1CCN(c2nnc(C(=O)N3CCc4[nH]cnc4C3c3nc4cc(F)ccc4o3)o2)CC1 (stereo not drawn) [listing 2 of 2 here]
1 to 5 µM | O=C(c1nnc(-c2ccc(C(F)(F)F)cn2)o1)N1CCc2[nH]cnc2C1c1nc2cc(F)ccc2o1 (stereo not drawn)
1 to 5 µM | COCc1nnc(C(=O)N2CCc3[nH]cnc3C2c2nc3cc(F)ccc3o2)o1 (stereo not drawn) [listing 2 of 2 here]
≥ 5 µM | O=C(c1cnn2cc(F)ccc12)N1CCc2[nH]cnc2C1c1nc2cc(F)ccc2o1 (stereo not drawn)
≥ 5 µM | O=C(c1cnco1)N1CCc2[nH]cnc2C1c1nc2ccc(Br)cc2o1 (stereo not drawn)
≥ 5 µM | O=C(c1cncs1)N1CCc2[nH]cnc2C1c1nc2ccc(Br)cc2o1 (stereo not drawn)
1 to 5 µM | Cn1cc(-c2ncc(C(=O)N3CCc4[nH]cnc4C3c3nc4ccc(Br)cc4o3)s2)cn1 (stereo not drawn)
1 to 5 µM | O=C(c1cnc(-c2ccccn2)s1)N1CCc2[nH]cnc2C1c1nc2ccc(Br)cc2o1 (stereo not drawn)
1 to 5 µM | Cc1ccc2nc(C3c4nc[nH]c4CCN3C(=O)c3cncs3)oc2c1 (stereo not drawn) [listing 2 of 2 here]
≥ 5 µM | CNCc1ccc2c(C(=O)N3CCc4[nH]cnc4C3c3nc4cc(F)ccc4o3)cnn2c1 (stereo not drawn)
1 to 5 µM | Cc1nc(CN(C)C)oc1C(=O)N1CCc2[nH]cnc2C1c1nc2cc(F)ccc2o1 (stereo not drawn) [listing 2 of 2 here]
1 to 5 µM | CN(C)Cc1nnc(C(=O)N2CCc3[nH]cnc3C2c2nc3cc(F)ccc3o2)o1 (stereo not drawn)
1 to 5 µM | Cc1ccc2nc(C3c4nc[nH]c4CCN3C(=O)c3cnn4cc(CCN(C)C)ccc34)oc2c1 (stereo not drawn) [listing 2 of 2 here]

Reference: patent US20250171437A1 (Agios Pharmaceuticals,Inc., priority 2022, published 2025)
